Experimental data as given in ChEMBL document CHEMBL5338788, “Discovery of a New-Generation S-Adenosylmethionine-Noncompetitive Covalent Inhibitor Targeting the Lysine Methyltransferase Enhancer of Zeste Homologue 2” (J Med Chem, 2023).
The source made the active and inactive calls. No cut-off for these calls is given here.

Legend:
Pfeiffer [1] = test: Antiproliferative activity against human Pfeiffer cells expressing EZH2 […] mutant assessed as inhibition of cell proliferation incubated for 6 days by CCK8 assay; assay type: functional, cell-based; settings: 144 h
KARPAS-422 [2] = test: Downregulation of H2K27me3 level in human KARPAS-422 cells at 0.05 to 1 uM by Western blot analysis; assay type: functional, cell-based; settings: dose 0.05-1 µM, time 48-96 hrs, TDE = time-dependent effect
[3] = biological target: T1, Histone-lysine N-methyltransferase, H3 lysine-36 specific (Homo sapiens, UniProt Q96L73); test: Inhibition of NSD1 (unknown origin) using histone peptide/SAM as substrate by AlphaLisa assay
T1 sequence (Q96L73 whole entry): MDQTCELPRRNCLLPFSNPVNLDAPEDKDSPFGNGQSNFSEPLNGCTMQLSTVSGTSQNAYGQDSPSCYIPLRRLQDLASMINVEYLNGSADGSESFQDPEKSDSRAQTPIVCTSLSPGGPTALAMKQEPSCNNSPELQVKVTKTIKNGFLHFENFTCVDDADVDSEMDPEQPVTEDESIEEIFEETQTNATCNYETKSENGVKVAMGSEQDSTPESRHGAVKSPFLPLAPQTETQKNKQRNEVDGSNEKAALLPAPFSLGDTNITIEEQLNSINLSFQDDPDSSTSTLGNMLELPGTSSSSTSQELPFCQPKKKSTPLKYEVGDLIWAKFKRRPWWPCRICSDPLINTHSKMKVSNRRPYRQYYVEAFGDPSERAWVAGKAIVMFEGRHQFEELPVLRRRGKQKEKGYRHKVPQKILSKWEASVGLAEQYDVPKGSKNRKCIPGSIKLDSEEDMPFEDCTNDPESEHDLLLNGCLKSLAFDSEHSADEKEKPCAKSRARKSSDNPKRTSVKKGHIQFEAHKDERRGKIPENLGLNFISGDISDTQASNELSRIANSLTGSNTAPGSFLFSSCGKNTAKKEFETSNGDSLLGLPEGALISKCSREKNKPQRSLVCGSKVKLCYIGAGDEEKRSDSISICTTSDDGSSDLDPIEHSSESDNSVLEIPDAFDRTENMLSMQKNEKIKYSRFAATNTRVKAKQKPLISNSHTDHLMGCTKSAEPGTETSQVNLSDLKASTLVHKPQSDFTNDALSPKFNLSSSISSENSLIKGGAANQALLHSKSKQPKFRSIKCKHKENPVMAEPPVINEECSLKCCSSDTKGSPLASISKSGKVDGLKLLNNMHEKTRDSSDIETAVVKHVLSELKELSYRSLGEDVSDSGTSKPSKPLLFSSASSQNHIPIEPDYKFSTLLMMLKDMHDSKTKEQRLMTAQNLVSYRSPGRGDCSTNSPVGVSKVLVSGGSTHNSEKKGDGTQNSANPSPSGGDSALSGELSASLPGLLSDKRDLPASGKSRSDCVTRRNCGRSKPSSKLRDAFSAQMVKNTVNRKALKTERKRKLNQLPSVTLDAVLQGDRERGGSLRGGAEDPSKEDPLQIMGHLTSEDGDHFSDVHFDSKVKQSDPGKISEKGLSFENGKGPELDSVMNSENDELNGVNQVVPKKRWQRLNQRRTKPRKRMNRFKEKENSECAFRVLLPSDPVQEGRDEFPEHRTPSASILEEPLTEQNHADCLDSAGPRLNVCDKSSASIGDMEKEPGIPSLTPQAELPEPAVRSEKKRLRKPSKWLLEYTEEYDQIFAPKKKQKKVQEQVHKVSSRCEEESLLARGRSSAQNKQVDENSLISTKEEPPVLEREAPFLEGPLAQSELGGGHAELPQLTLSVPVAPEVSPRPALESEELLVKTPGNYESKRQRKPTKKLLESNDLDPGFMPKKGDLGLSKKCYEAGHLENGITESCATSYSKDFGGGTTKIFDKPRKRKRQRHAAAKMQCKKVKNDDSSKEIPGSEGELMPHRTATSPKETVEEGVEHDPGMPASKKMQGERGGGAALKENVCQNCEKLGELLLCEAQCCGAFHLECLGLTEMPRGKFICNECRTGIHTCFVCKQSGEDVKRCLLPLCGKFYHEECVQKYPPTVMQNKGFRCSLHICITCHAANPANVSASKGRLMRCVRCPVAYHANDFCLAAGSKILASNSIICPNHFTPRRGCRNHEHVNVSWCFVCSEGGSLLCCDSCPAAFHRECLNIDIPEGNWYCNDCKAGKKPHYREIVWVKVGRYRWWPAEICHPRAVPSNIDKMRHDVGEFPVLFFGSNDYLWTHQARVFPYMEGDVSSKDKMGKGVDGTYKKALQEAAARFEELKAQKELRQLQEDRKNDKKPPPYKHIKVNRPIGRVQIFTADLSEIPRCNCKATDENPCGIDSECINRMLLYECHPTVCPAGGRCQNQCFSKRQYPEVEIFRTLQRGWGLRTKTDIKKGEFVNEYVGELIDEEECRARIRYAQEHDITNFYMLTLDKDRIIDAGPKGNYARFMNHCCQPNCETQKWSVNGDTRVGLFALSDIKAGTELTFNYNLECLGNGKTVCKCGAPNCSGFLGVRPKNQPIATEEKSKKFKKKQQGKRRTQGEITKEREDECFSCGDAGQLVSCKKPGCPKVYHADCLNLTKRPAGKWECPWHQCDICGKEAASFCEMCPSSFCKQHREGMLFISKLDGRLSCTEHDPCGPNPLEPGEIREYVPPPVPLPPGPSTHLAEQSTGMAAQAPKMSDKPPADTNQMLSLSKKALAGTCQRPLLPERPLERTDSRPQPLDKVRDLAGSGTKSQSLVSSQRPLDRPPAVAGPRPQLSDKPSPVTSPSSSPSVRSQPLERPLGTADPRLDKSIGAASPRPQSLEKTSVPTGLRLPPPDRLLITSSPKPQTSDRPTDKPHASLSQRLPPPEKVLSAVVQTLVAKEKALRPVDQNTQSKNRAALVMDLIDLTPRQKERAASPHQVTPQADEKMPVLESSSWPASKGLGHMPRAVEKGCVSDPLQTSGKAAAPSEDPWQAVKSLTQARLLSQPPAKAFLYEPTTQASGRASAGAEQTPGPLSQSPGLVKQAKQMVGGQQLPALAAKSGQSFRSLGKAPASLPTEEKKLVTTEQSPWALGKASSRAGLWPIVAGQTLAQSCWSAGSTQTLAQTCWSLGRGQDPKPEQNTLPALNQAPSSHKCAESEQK

[4] = Cmax in Sprague-Dawley rat at 10 mg/kg, po measured for 0.25 to 24 hrs by LC-MS/MS analysis; assay type: ADME, organism-based; parameters: time lower 0.25 hrs, dose 10 mg/kg, time upper 24 hrs, route po; settings: in vivo
RL = test: Antiproliferative activity against human RL cells expressing EZH2 mutant assessed as inhibition of cell proliferation incubated for 6 days by CCK8 assay; assay type: functional, cell-based; settings: time 6.0 day
Pfeiffer [5] = test: Downregulation of H2K27me3 level in human Pfeiffer cells at 0.05 to 1 uM by Western blot analysis; assay type: functional, cell-based; settings: dose 0.05-1 µM, time 48-96 hrs, TDE = time-dependent effect
[6] = biological target: T2, Protein arginine N-methyltransferase 1 (Homo sapiens, UniProt Q99873); test: Inhibition of PRMT1 (unknown origin) using histone peptide/SAM as substrate by AlphaLisa assay
[7] = biological target: T3, Histone-lysine N-methyltransferase 2B (Homo sapiens, UniProt Q9UMN6); test: Inhibition of MLL4 (unknown origin) using histone peptide/SAM as substrate by HTRF assay
[8] = biological target: T4, Histone-lysine N-methyltransferase 2A (Homo sapiens, UniProt Q03164); test: Inhibition of MLL1 (unknown origin) using histone peptide/SAM as substrate by HTRF assay
[9] = Antiproliferative activity against human WILL-1 cells expressing wild-type EZH2 assessed as inhibition of cell proliferation incubated for 6 days by CCK8 assay; assay type: functional, cell-based; settings: WILL-1, 144 h
[10] = Apparent permeability in human Caco-2 cells at 20 uM measured for 35 to 95 mins by LC-MS/MS analysis; assay type: ADME, cell-based; settings: time 35-95 min
KARPAS-422 [11] = test: Antiproliferative activity against human KARPAS-422 cells expressing EZH2 mutant assessed as inhibition of cell proliferation incubated for 6 days by CCK8 assay; assay type: functional, cell-based; settings: time 6.0 day
U2932 = test: Antiproliferative activity against human U2932 cells expressing wild-type EZH2 assessed as inhibition of cell proliferation incubated for 6 days by CCK8 assay; assay type: functional, cell-based; settings: U2932, 144 h
OPM-2 = test: Antiproliferative activity against human OPM-2 cells expressing wild-type EZH2 assessed as inhibition of cell proliferation incubated for 6 days by CCK8 assay; assay type: functional, cell-based; settings: OPM-2, 144 h
HT = test: Antiproliferative activity against human HT cells expressing wild-type EZH2 assessed as inhibition of cell proliferation incubated for 6 days by CCK8 assay; assay type: functional, cell-based; settings: time 6.0 day
WSUDLCL2 = test: Antiproliferative activity against human WSUDLCL2 cells expressing wild-type EZH2 assessed as inhibition of cell proliferation incubated for 6 days by CCK8 assay; assay type: functional, cell-based; settings: WSUDLCL2, 144 h
[12] = biological target: Histone-lysine N-methyltransferase NSD2 (Homo sapiens, UniProt O96028); test: Inhibition of NSD2 (unknown origin) using histone peptide/SAM as substrate by AlphaLisa assay
[13] = AUC (0 to last) in Sprague-Dawley rat at 10 mg/kg, po measured for 0.25 to 24 hrs by LC-MS/MS analysis; assay type: ADME, organism-based; parameters: dose 10 mg/kg, time upper 24 hrs, time lower 0.25 hrs, route po; settings: in vivo
[14] = biological target: T2, Protein arginine N-methyltransferase 1; test: Inhibition of PRMT1 (unknown origin) using histone peptide/SAM as substrate at 10 uM by AlphaLisa assay
[15] = Half life in Sprague-Dawley rat at 3 mg/kg, iv measured for 0.25 to 24 hrs by LC-MS/MS analysis; assay type: ADME, organism-based; settings: in vivo, time 0.25-24 hrs
[16] = biological target: T5, DNA (cytosine-5)-methyltransferase 1 (Homo sapiens, UniProt P26358); test: Inhibition of DNMT1 (unknown origin) using histone peptide/SAM as substrate at 10 uM by AlphaLisa assay
T5 sequence (P26358 whole entry): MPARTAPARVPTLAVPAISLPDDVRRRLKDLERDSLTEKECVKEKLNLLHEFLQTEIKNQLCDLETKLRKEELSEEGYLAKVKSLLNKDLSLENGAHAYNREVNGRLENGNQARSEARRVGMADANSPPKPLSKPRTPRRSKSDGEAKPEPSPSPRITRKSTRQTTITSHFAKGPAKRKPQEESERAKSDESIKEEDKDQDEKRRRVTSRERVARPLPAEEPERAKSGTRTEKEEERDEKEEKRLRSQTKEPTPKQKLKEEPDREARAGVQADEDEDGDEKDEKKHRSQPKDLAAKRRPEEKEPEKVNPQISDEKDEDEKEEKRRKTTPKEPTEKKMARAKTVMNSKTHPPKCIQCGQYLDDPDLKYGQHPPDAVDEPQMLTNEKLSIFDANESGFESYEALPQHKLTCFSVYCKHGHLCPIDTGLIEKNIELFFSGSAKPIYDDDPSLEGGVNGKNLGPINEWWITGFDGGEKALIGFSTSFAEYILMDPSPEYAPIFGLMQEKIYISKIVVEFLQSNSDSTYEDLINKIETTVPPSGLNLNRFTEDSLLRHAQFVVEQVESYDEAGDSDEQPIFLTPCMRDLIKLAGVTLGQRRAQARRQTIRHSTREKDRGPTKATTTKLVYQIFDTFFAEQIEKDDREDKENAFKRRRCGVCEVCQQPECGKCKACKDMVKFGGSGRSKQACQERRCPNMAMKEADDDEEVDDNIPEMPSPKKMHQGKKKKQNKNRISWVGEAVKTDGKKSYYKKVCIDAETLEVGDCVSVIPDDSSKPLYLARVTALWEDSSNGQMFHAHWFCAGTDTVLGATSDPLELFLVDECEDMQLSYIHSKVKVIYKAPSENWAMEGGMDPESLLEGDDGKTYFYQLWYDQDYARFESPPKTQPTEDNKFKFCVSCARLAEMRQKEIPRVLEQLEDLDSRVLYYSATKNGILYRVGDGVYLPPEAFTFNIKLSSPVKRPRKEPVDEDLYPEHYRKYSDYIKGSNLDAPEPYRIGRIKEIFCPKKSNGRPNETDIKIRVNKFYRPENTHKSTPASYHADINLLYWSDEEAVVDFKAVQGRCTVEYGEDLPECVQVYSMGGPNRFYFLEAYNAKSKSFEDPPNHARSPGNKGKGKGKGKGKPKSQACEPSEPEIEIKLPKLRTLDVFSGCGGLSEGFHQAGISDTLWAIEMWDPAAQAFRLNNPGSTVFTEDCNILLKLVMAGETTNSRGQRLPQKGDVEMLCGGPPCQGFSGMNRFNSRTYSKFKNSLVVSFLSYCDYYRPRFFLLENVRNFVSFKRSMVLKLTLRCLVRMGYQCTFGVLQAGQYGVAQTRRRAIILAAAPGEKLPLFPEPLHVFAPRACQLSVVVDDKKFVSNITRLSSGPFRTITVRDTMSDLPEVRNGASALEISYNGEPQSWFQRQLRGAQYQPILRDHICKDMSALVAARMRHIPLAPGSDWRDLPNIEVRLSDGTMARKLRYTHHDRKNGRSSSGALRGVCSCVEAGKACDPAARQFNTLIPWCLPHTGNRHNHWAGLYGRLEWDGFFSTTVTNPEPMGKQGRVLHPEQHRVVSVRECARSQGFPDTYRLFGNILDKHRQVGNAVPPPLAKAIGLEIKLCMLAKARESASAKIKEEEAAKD

[17] = biological target: Histone-lysine N-methyltransferase EHMT1 (Homo sapiens, UniProt Q9H9B1); test: Inhibition of GLP (unknown origin) using histone peptide/SAM as substrate by AlphaLisa assay
KARPAS-422 [18] = test: Antiproliferative activity against human KARPAS-422 cells expressing EZH2 Y641N mutant assessed as inhibition of cell proliferation incubated for 6 days by CCK8 assay; assay type: functional, cell-based; settings: KARPAS-422, 144 h
Karpas-1106P = test: Antiproliferative activity against human KARPAS-1106P cells expressing wild-type EZH2 assessed as inhibition of cell proliferation incubated for 6 days by CCK8 assay; assay type: functional, cell-based; settings: time 6.0 day
[19] = biological target: Histone-arginine methyltransferase CARM1 (Homo sapiens, UniProt Q86X55); test: Inhibition of PRMT4 (unknown origin) using histone peptide/SAM as substrate by AlphaLisa assay
SU-DHL10 = test: Antiproliferative activity against human SU-DHL-10 cells expressing EZH2 mutant assessed as inhibition of cell proliferation incubated for 6 days by CCK8 assay; assay type: functional, cell-based; settings: time 6.0 day
[20] = biological target: Histone-lysine N-methyltransferase EHMT2 (Homo sapiens) (UniProt Q96KQ7); test: Inhibition of G9a (unknown origin) using histone peptide/SAM as substrate at 10 uM by AlphaLisa assay
[21] = Metabolic stability in human liver microsomes assessed as half life preincubated for 10 mins followed by NADPH addition measured upto 60 mins by LC-MS/MS analysis; assay type: ADME, Microsome; settings: time < 70 min
[22] = biological target: Histone-lysine N-methyltransferase EHMT2 (Homo sapiens, UniProt Q96KQ7); test: Inhibition of G9a (unknown origin) using histone peptide/SAM as substrate by AlphaLisa assay
[23] = biological target: T5, DNA (cytosine-5)-methyltransferase 1; test: Inhibition of DNMT1 (unknown origin) using histone peptide/SAM as substrate by AlphaLisa assay
[24] = biological target: T6, Protein arginine N-methyltransferase 5 (Homo sapiens, UniProt O14744); test: Inhibition of PRMT5 (unknown origin) using histone peptide/SAM as substrate at 10 uM by AlphaLisa assay
T6 sequence (O14744 whole entry): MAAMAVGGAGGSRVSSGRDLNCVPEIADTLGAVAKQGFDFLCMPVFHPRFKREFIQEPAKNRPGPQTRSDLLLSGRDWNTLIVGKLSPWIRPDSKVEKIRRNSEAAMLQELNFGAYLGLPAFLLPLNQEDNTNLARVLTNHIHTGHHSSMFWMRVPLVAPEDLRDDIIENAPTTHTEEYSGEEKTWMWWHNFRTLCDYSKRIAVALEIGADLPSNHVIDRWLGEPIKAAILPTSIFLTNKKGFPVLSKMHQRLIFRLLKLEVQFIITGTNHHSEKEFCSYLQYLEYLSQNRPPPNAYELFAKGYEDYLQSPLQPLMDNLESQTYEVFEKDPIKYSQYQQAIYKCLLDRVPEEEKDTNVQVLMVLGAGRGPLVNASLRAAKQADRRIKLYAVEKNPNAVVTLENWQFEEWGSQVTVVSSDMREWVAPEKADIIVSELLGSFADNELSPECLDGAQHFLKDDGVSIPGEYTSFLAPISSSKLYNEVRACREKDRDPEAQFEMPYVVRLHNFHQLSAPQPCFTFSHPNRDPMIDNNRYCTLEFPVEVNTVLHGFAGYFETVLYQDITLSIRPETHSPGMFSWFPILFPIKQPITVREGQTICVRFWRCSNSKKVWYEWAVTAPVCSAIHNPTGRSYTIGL

Pfeiffer [25] = test: Effect on EZH2 level in human Pfeiffer cells at 0.05 to 1 uM incubated for 48 to 96 hrs by Western blot analysis; assay type: functional, cell-based; settings: dose 0.05-1 µM, time 48-96 hrs
Pfeiffer [26] = test: Downregulation of H2K27me3 level in human Pfeiffer cells incubated for 48 to 96 hrs by Western blot analysis; assay type: functional, cell-based; settings: dose 0.05-1 µM, time 48-96 hrs
[27] = biological target: Histone-lysine N-methyltransferase EHMT1 (Homo sapiens) (UniProt Q9H9B1); test: Inhibition of GLP (unknown origin) using histone peptide/SAM as substrate at 10 uM by AlphaLisa assay
Pfeiffer [28] = test: Antiproliferative activity against human Pfeiffer cells expressing EZH2 mutant assessed as inhibition of cell proliferation incubated for 6 days by CCK8 assay; assay type: functional, cell-based; settings: time 6.0 day
DB = test: Antiproliferative activity against human DB cells expressing wild-type EZH2 assessed as inhibition of cell proliferation incubated for 6 days by CCK8 assay; assay type: functional, cell-based; settings: 144 h
[29] = biological target: T1, Histone-lysine N-methyltransferase, H3 lysine-36 specific; test: Inhibition of NSD1 (unknown origin) using histone peptide/SAM as substrate at 10 uM by AlphaLisa assay
[30] = biological target: Histone-lysine N-methyltransferase NSD2 (Homo sapiens) (UniProt O96028); test: Inhibition of NSD2 (unknown origin) using histone peptide/SAM as substrate at 10 uM by AlphaLisa assay
SU-DHL-2 = test: Antiproliferative activity against human SUDHL2 cells expressing EZH2 mutant assessed as inhibition of cell proliferation incubated for 6 days by CCK8 assay; assay type: functional, cell-based; settings: SU-DHL-2, 144 h
[31] = biological target: T3, Histone-lysine N-methyltransferase 2B; test: Inhibition of MLL4 (unknown origin) using histone peptide/SAM as substrate at 10 uM by HTRF assay
[32] = Bioavailability in Sprague-Dawley rat at 10 mg/kg, po measured for 0.25 to 24 hrs by LC-MS/MS analysis; assay type: ADME, organism-based; settings: in vivo, time 0.25-24 hrs
[33] = biological target: T4, Histone-lysine N-methyltransferase 2A; test: Inhibition of MLL1 (unknown origin) using histone peptide/SAM as substrate at 10 uM by HTRF assay
[34] = biological target: Histone-arginine methyltransferase CARM1 (Homo sapiens) (UniProt Q86X55); test: Inhibition of PRMT4 (unknown origin) using histone peptide/SAM as substrate at 10 uM by AlphaLisa assay
Pfeiffer [35] = test: Downregulation of H3K27me3 level in human Pfeiffer cells at 1 uM incubated for 96 hrs followed by compound washout measured after 120 hrs by Western blot analysis; assay type: functional, cell-based; settings: time 216.0 hrs
Pfeiffer [36] = test: Effect on total H3 level in human Pfeiffer cells at 0.05 to 1 uM incubated for 48 to 96 hrs by Western blot analysis; assay type: functional, cell-based; settings: dose 0.05-1 µM, time 48-96 hrs
[37] = AUC (0 to last) in Sprague-Dawley rat at 3 mg/kg, iv measured for 0.25 to 24 hrs by LC-MS/MS analysis; assay type: ADME, organism-based; parameters: time 0.25-24 hrs, dose 3 mg/kg, route iv; settings: in vivo
KARPAS-422 [38] = test: Downregulation of H2K27me3 level in human KARPAS-422 cells incubated for 48 to 96 hrs by Western blot analysis; assay type: functional, cell-based; settings: dose 0.05-1 µM, time 48-96 hrs
[39] = biological target: T6, Protein arginine N-methyltransferase 5; test: Inhibition of PRMT5 (unknown origin) using histone peptide/SAM as substrate by AlphaLisa assay

- IC50 [3]: > 10 µM
- Cmax [4]: 29.5 ng/mL
- IC50 [6]: > 10 µM
- IC50 [7]: > 10 µM
- IC50 [8]: > 10 µM
- Papp at 20 µM [10]: 0.052 ×10⁻⁶ cm/s
- IC50 [12]: > 10 µM
- AUC(0-t) [13]: 8.16 ng·h/mL
- inhibition [14]: inactive
- t1/2 [15]: 16.8 min
- inhibition [16]: inactive
- IC50 [17]: > 10 µM
- IC50 (KARPAS-422 [18]): 0.064 µM
- IC50 [19]: > 10 µM
- inhibition [20]: inactive
- half-life [21]: 33.8 min
- IC50 [22]: > 10 µM
- IC50 [23]: > 10 µM
- inhibition [24]: inactive
- inhibition [27]: inactive
- inhibition [29]: inactive
- inhibition [30]: inactive
- IC50 (SU-DHL-2): > 3 µM
- inhibition [31]: inactive
- bioavailability [32]: 0.05%
- inhibition [33]: inactive
- inhibition [34]: inactive
- AUC(0-t) [37]: 4890 ng·h/mL
- IC50 [39]: > 10 µM
Structure (SMILES): C=CC(=O)NCc1cc(C(=O)NCc2c(SC)cc(C)[nH]c2=O)c(C)c(N(CC)C2CCOCC2)c1
- IC50 (Pfeiffer [1]): 0.022 µM
- Activity (KARPAS-422 [2]): Tde
- inhibition (RL): Active
- Activity (Pfeiffer [5]): Tde
- IC50 [9]: > 3 µM
- inhibition (KARPAS-422 [11]): Active
- IC50 (U2932): > 3 µM
- IC50 (OPM-2): > 3 µM
- inhibition (HT): Active
- IC50 (WSUDLCL2): > 3 µM
- inhibition (Karpas-1106P): Active
- inhibition (SU-DHL10): Active
- Activity (Pfeiffer [25]): inactive
- Activity (Pfeiffer [26]): Dose-Dependent Effect
- inhibition (Pfeiffer [28]): Active
- IC50 (DB): > 3 µM
- Activity (Pfeiffer [35]): Active
- Activity (Pfeiffer [36]): inactive
- Activity (KARPAS-422 [38]): Dose-Dependent Effect
